Experimental findings from patent US20240043427A1 (Gilead Sciences, Inc., priority 2020, published 2024) are described below.

For assay [1], the target named is T1, CD73 (Homo sapiens (Human), UniProt P21589). Description: MDA-MB-231 Cell Based CD73 Activity Assay (DMEM). The conditions noted are these: MDA-MB-231-GFP cells, DMEM medium with 10% human plasma, 200 uM AMP.
In assay [2] the target is T1, CD73. In kind it is biochemical. The conditions noted are these: 1 mM NaH2PO4 in enzyme buffer, CD73 0.3 nM, AMP 15 uM.

T1 sequence (P21589 27-574): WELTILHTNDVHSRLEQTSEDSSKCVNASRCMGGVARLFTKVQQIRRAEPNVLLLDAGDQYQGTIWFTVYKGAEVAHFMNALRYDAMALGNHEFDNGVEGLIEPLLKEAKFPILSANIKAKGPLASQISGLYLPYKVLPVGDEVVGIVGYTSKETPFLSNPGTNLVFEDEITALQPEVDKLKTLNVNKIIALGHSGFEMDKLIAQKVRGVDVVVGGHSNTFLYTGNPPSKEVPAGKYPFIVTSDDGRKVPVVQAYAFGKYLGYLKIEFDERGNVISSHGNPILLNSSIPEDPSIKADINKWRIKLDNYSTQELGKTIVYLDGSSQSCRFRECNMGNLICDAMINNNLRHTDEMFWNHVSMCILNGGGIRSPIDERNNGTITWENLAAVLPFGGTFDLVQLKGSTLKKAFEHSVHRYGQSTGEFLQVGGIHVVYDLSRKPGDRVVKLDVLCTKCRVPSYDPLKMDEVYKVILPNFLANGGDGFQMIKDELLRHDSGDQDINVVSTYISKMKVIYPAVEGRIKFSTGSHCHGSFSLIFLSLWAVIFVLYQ

Broadly, the EC50 is the midpoint of the concentration-response curve. A high value points to lower potency in that assay. Usually IC50 stands for the concentration that gives 50% inhibition. A high value points to weaker potency. Molecule `O=c1[nH]cc(-c2cc(N3C[C@H](Oc4cc(C(F)F)ccn4)C(F)(F)C3)c3nccn3n2)c(=O)[nH]1` [Example 341, (S)-5-(8-(4-((4-(difluoromethyl)pyridin-2-yl)oxy)-3,3-difluoropyrrolidin-1-yl)imidazo[1,2-b]pyridazin-6-yl)pyrimidine-2,4(1H,3H)-dione] returned an EC50 at CD73 [1] of 0.53 nM. This molecule also had an IC50 on CD73 [2] of 0.43 nM.

In the case of `O=c1[nH]cc(-c2cc([C@H]3C[C@@H]3c3cnc4cnn(CC(F)(F)F)c4c3)c3ncc(F)n3n2)c(=O)[nH]1` (racemic) [Example 619, 5-(3-fluoro-8-((1S,2S)-2-(1-(2,2,2-trifluoroethyl)-1H-pyrazolo[4,3-b]pyridin-6-yl)cyclopropyl)imidazo[1,2-b]pyridazin-6-yl)pyrimidine-2,4(1H,3H)-dione], at CD73 [1], the EC50 stood at 0.14 nM. On CD73 [2], this molecule showed an IC50 of 0.95 nM.

Consider `CC1(CC(F)(F)F)CN(c2cc(-c3c[nH]c(=O)[nH]c3=O)nn3ccnc23)C1` [Example 445, 5-(8-(3-methyl-3-(2,2,2-trifluoroethyl)azetidin-1-yl)imidazo[1,2-b]pyridazin-6-yl)pyrimidine-2,4(1H,3H)-dione], for which the 50% effective concentration (EC50) on CD73 [1] was 256 nM. Besides, at CD73 [2], half-maximal inhibition (IC50) required 148 nM.

On to `CCc1cnn2c(N3CC(C)(C)C(F)(F)C3)cc(-c3c[nH]c(=O)[nH]c3=O)nc12` [Example 217, 5-(7-(3,3-difluoro-4,4-dimethylpyrrolidin-1-yl)-3-ethylpyrazolo[1,5-a]pyrimidin-5-yl)pyrimidine-2,4(1H,3H)-dione], for which, at CD73 [1], the response was half-maximal at 584 nM (EC50). For the same molecule, the midpoint of inhibition at CD73 [2], the IC50, lay at 111 nM.

For the molecule `CC(C)NC(=O)CC1CCN(c2cc(-c3c[nH]c(=O)[nH]c3=O)nn3ccnc23)C1` (centres unmarked) [Example 654, 2-(1-(6-(2,4-dioxo-1,2,3,4-tetrahydropyrimidin-5-yl)imidazo[1,2-b]pyridazin-8-yl)pyrrolidin-3-yl)-N-isopropylacetamide], a half-maximal effect at CD73 [1] (EC50) was put at 133 nM. Further, the IC50 at CD73 [2] was found to be 54.5 nM.

In the case of `O=c1[nH]cc(-c2cc([C@H]3C[C@@H]3c3ccc4cnn(CC(F)(F)F)c4n3)c3nccn3n2)c(=O)[nH]1` (racemic) [Example 601, 5-(8-((1S,2S)-2-(1-(2,2,2-trifluoroethyl)-1H-pyrazolo[3,4-b]pyridin-6-yl)cyclopropyl)imidazo[1,2-b]pyridazin-6-yl)pyrimidine-2,4(1H,3H)-dione], the EC50 at CD73 [1] turned out to be 0.17 nM. The same molecule displayed an IC50 on CD73 [2] of 1.16 nM.

Regarding `O=c1[nH]cc(-c2cc(OCCC(F)(F)F)c3nccn3n2)c(=O)[nH]1` [Example 681, 5-(8-(3,3,3-trifluoropropoxy)imidazo[1,2-b]pyridazin-6-yl)pyrimidine-2,4(1H,3H)-dione], the EC50 on CD73 [1] turned out to be 94 nM. Also, the IC50 on CD73 [2] came out at 61.3 nM.

`O=c1[nH]cc(-c2cc(N3CC4CCC3C4)c3nccn3n2)c(=O)[nH]1` (centres unmarked) [Example 643, 5-(8-(2-azabicyclo[2.2.1]heptan-2-yl)imidazo[1,2-b]pyridazin-6-yl)pyrimidine-2,4(1H,3H)-dione] displayed an EC50 on CD73 [1] of 98.9 nM. On CD73 [2], half-maximal inhibition (IC50) required 36.4 nM.

As to `COC[C@@H](C)NC(=O)O[C@H]1CN(c2cc(-c3c[nH]c(=O)[nH]c3=O)nn3ccnc23)CC1(F)F` [Example 548, (S)-1-(6-(2,4-dioxo-1,2,3,4-tetrahydropyrimidin-5-yl)imidazo[1,2-b]pyridazin-8-yl)-4,4-difluoropyrrolidin-3-yl ((R)-1-methoxypropan-2-yl)carbamate], a half-maximal effect at CD73 [1] (EC50) was put at 0.13 nM. In addition, the half-maximal inhibitory concentration (IC50) against CD73 [2] amounted to 0.63 nM.

`CCOC(=O)OC1CN(c2cc(-c3c[nH]c(=O)[nH]c3=O)nn3ccnc23)CC1(F)F` (centres unmarked) [Example 525, 1-(6-(2,4-dioxo-1,2,3,4-tetrahydropyrimidin-5-yl)imidazo[1,2-b]pyridazin-8-yl)-4,4-difluoropyrrolidin-3-yl ethyl carbonate] had an EC50 at CD73 [1] of 4.43 nM. The molecule also registered an IC50 at CD73 [2] of 1.54 nM.

At CD73 [1], `O=c1[nH]cc(-c2cc(N3CC(F)(F)C4(CC4)C3)c3nccn3n2)c(=O)[nH]1` [Example 83, 5-(8-(7,7-difluoro-5-azaspiro[2.4]heptan-5-yl)imidazo[1,2-b]pyridazin-6-yl)pyrimidine-2,4(1H,3H)-dione] returned a half-maximal effective concentration (EC50) of 6.65 nM. In addition, on CD73 [2], half-maximal inhibition (IC50) required 1.47 nM.

In turn, `O=c1[nH]cc(-c2cc(N3CC(Oc4ccc(C(F)(F)F)cn4)(C(F)(F)F)C3)c3nccn3n2)c(=O)[nH]1` [Example 434, 5-(8-(3-(trifluoromethyl)-3-((5-(trifluoromethyl)pyridin-2-yl)oxy)azetidin-1-yl)imidazo[1,2-b]pyridazin-6-yl)pyrimidine-2,4(1H,3H)-dione] returned an EC50 on CD73 [1] of 14.4 nM. The IC50 at CD73 [2] came out at 2.78 nM.

Consider `O=c1[nH]cc(-c2cc([C@H]3C[C@@H]3c3ccc4ncn(CC(F)(F)F)c4c3)c3nccn3n2)c(=O)[nH]1` [Example 322, 5-(8-((1S,2S)-2-(1-(2,2,2-trifluoroethyl)-1H-benzo[d]imidazol-6-yl)cyclopropyl)imidazo[1,2-b]pyridazin-6-yl)pyrimidine-2,4(1H,3H)-dione], for which the EC50 at CD73 [1] was determined as 0.07 nM. The IC50 at CD73 [2] is 0.8 nM.

`O=c1[nH]cc(-c2cc(N3C[C@H](Oc4ccc(C(F)(F)F)cn4)C(F)(F)C3)c3nccn3n2)c(=O)[nH]1` [Example 529, (S)-5-(8-(3,3-difluoro-4-((5-(trifluoromethyl)pyridin-2-yl)oxy)pyrrolidin-1-yl)imidazo[1,2-b]pyridazin-6-yl)pyrimidine-2,4(1H,3H)-dione] had an EC50 on CD73 [1] of 2.25 nM. At CD73 [2], this molecule returned a 50% inhibitory concentration (IC50) of 0.7 nM.

In turn, `CC(C)n1cc(CC2CCN(c3cc(-c4c[nH]c(=O)[nH]c4=O)nn4ccnc34)C2)nn1` (centres unmarked) [Example 663, 5-(8-(3-((1-isopropyl-1H-1,2,3-triazol-4-yl)methyl)pyrrolidin-1-yl)imidazo[1,2-b]pyridazin-6-yl)pyrimidine-2,4(1H,3H)-dione] displayed an EC50 on CD73 [1] of 160 nM. The midpoint of inhibition at CD73 [2], the IC50, lay at 24.5 nM.

The molecule `N#Cc1ccc([C@H]2C[C@@H]2c2cc(-c3c[nH]c(=O)[nH]c3=O)nn3ccnc23)cc1F` [Example 467, 4-((1S,2S)-2-(6-(2,4-dioxo-1,2,3,4-tetrahydropyrimidin-5-yl)imidazo[1,2-b]pyridazin-8-yl)cyclopropyl)-2-fluorobenzonitrile] registered an EC50 on CD73 [1] of 3.86 nM. Also, on CD73 [2], the IC50 is 0.85 nM.

On to `O=c1[nH]cc(-c2cc([C@H]3C[C@@H]3c3ccc4nc(C(F)(F)F)ccc4c3)c3nccn3n2)c(=O)[nH]1` (racemic) [Example 142, 5-(8-((1S,2S)-2-(2-(trifluoromethyl)quinolin-6-yl)cyclopropyl)imidazo[1,2-b]pyridazin-6-yl)pyrimidine-2,4(1H,3H)-dione and 5-(8-((1R,2R)-2-(2-(trifluoromethyl)quinolin-6-yl)cyclopropyl)imidazo[1,2-b]pyridazin-6-yl)pyrimidine-2,4(1H,3H)-dione], for which it took 3.76 nM to reach a half-maximal effect at CD73 [1] (EC50). Also, on CD73 [2], the IC50 turned out to be 0.96 nM.

Molecule `O=c1[nH]cc(-c2cc(N3C[C@H](Oc4cc(C(F)(F)F)ccn4)C(F)(F)C3)c3nccn3n2)c(=O)[nH]1` [Example 330, (S)-5-(8-(3,3-difluoro-4-((4-(trifluoromethyl)pyridin-2-yl)oxy)pyrrolidin-1-yl)imidazo[1,2-b]pyridazin-6-yl)pyrimidine-2,4(1H,3H)-dione] returned an EC50 at CD73 [1] of 0.51 nM. The molecule also showed an IC50 against CD73 [2] of 1.07 nM.

On to `O=C(OCC(F)(F)F)N1CC2(C1)CN(c1cc(-c3c[nH]c(=O)[nH]c3=O)nn3ccnc13)CC2(F)F` [Example 506, 2,2,2-trifluoroethyl 6-(6-(2,4-dioxo-1,2,3,4-tetrahydropyrimidin-5-yl)imidazo[1,2-b]pyridazin-8-yl)-8,8-difluoro-2,6-diazaspiro[3.4]octane-2-carboxylate], for which the EC50 at CD73 [1] worked out at 8.67 nM. At CD73 [2], this molecule came in with an IC50 of 8.82 nM.

On to `O=c1[nH]cc(-c2cc([C@H]3C[C@@H]3c3ncc(C(F)(F)F)cc3F)c3nccn3n2)c(=O)[nH]1` [Example 635, 5-(8-((1S,2S)-2-(3-fluoro-5-(trifluoromethyl)pyridin-2-yl)cyclopropyl)imidazo[1,2-b]pyridazin-6-yl)pyrimidine-2,4(1H,3H)-dione], for which the response on CD73 [1] was half-maximal at 2.75 nM (EC50). Moreover, on CD73 [2], the IC50 worked out at 2.08 nM.

As to `COC(=O)N1CC2(C1)CN(c1cc(-c3c[nH]c(=O)[nH]c3=O)nn3ccnc13)CC2(F)F` [Example 504, Methyl 6-(6-(2,4-dioxo-1,2,3,4-tetrahydropyrimidin-5-yl)imidazo[1,2-b]pyridazin-8-yl)-8,8-difluoro-2,6-diazaspiro[3.4]octane-2-carboxylate], at CD73 [1], a half-maximal effect (EC50) was put at 5.62 nM. This molecule had an IC50 against CD73 [2] of 6.78 nM.

In turn, `O=c1[nH]cc(-c2cc([C@H]3C[C@@H]3c3cccnc3)c3nccn3n2)c(=O)[nH]1` [Example 162, 5-(8-((1S,2S)-2-(pyridin-3-yl)cyclopropyl)imidazo[1,2-b]pyridazin-6-yl)pyrimidine-2,4(1H,3H)-dione] yielded an EC50 at CD73 [1] of 4.41 nM. In addition, the IC50 on CD73 [2] was found to be 1.64 nM.

Molecule `Cc1ccc(NC(=O)O[C@H]2CN(c3cc(-c4c[nH]c(=O)[nH]c4=O)nn4ccnc34)CC2(F)F)c(F)c1` [Example 236, (S)-1-(6-(2,4-dioxo-1,2,3,4-tetrahydropyrimidin-5-yl)imidazo[1,2-b]pyridazin-8-yl)-4,4-difluoropyrrolidin-3-yl (2-fluoro-4-methylphenyl)carbamate] returned an EC50 at CD73 [1] of 3.04 nM. In addition, the IC50 against CD73 [2] was found to be 1.02 nM.

For the molecule `O=c1[nH]cc(-c2cc(N3CC[C@@H](OC(F)(F)F)C3)c3ncnn3n2)c(=O)[nH]1` [Example 429, (R)-5-(8-(3-(trifluoromethoxy)pyrrolidin-1-yl)-[1,2,4]triazolo[1,5-b]pyridazin-6-yl)pyrimidine-2,4(1H,3H)-dione], the EC50 at CD73 [1] is 8.89 nM. Besides, half-maximal inhibition against CD73 [2] (IC50) required 2.22 nM.

`O=c1[nH]cc(-c2cc(N3CCC4(CC4)C3)c3nccn3n2)c(=O)[nH]1` [Example 190, 5-[8-(5-azaspiro[2.4]heptan-5-yl)imidazo[1,2-b]pyridazin-6-yl]-1H-pyrimidine-2,4-dione] returned an EC50 on CD73 [1] of 12.8 nM. For the same molecule, at CD73 [2], the IC50 came to 3.05 nM.
